Laboratory results: PubChem BioAssay AID256 (DTP/NCI, 2004)
Toxic doses and inconclusive results are not listed. Rule for the calls: active = survival T/C of 150% or more; inactive = T/C below 125% in these data.

Test system: CD2F1 mice, L1210 leukemia ip, survival T/C
Assay: NCI In Vivo Anticancer Drug Screen. Data for tumor model L1210 Leukemia (intraperitoneal) in CD2F1 (CDF1) mice
Conditions: higher = longer survival
Method in brief: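 In this screen, transplantable tumors were grown in mice given either the compound or its vehicle. Results were expressed as the treated measurement relative to the control measurement.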

Measured: T/C

C1CN2CN3CCN(CN1C3)C2
inactive: endpoint: mean survival time, dose: 12.5 mg/kg/injection, schedule: Q01DX009 (ip), vehicle: saline 97 % of control | endpoint: mean survival time, dose: 25.0 mg/kg/injection, schedule: Q01DX009 (ip), vehicle: saline 109 % of control | endpoint: mean survival time, dose: 50.0 mg/kg/injection, schedule: Q01DX009 (ip), vehicle: saline 105 % of control | endpoint: mean survival time, dose: 100.0 mg/kg/injection, schedule: Q01DX009 (ip), vehicle: saline 118 % of control

CC(C)NCC1CC2c3cccc4[nH]cc(c34)CC2N(C)C1 (stereo unspecified)
inactive: endpoint: median survival time, dose: 25.0 mg/kg/injection, schedule: Q04DX003 (ip), vehicle: saline with Tween-80 100 % of control | endpoint: median survival time, dose: 50.0 mg/kg/injection, schedule: Q04DX003 (ip), vehicle: saline with Tween-80 111 % of control
